Data on 16 molecules can be found in patent US11434203B2, “8-hydroxyquinoline derivatives as diagnostic and therapeutic agents” (The General Hospital Corporation, priority 2015, dated 2022).

Like-named read-outs stand apart in the source and are kept apart here. A value given as a limit tells only on which side of the number the result lay.

One series deals with AD patients. The note with it: pilot phase II clinical trial, cited from earlier work.
The target of series [1] is T1, soluble Aβ oligomers (Human A 1-42) (Homo sapiens, UniProt P05067).
T1 construct: Human A 1-42 (China Peptide); purchased China Peptide
T1 sequence (P05067 672-713): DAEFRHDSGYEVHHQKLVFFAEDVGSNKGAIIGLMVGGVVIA
The series is described as follows: Aβ aggregation assay (bis-ANS): reversal of aggregation of soluble Aβ oligomers. The class given is biochemical. The text has this: 4,4(′)-dianilino-1,1(′)-binaphthyl-5,5(′)-disulfonate (bis-ANS, Sigma) was used to assess whether compounds could reverse the aggregation of soluble A oligomers. (See, e.g., LeVine, H., 3rd, (2002) 4,4(′)-Dianilino-1,1(′)-binaphthyl-5,5(′)-disulfonate: report on non-beta-sheet conformers of Alzheimer's peptide beta(1-40), Arch Biochem Biophys 404, 106; Chen, W. T. et al., (2011) Distinct effects of Zn^2+, Cu^2+, Fe^3+, and Al^3+ on amyloid-beta stability, oligomerization, and aggregation: amyloid-beta destabilization promotes annular protofibril formation, J Biol Chem 286, 9646) Human A 1-42 (China Peptide) was dissolved in DMSO (Sigma) to a stock concentration of 1.5 mM. A ([…]) oligomers were induced with ZnSO4 (15 μM) at 26° C. for 30 min in a buffer (pH 7.4) containing Tris (50 mM), NaCl (150 mM) and bis-ANS (10 μM). Compounds (0.1 to 120 μM) dissolved in DMSO (Sigma) were added for 30 min. CQ and PBT2 were used as positive controls. Endpoint fluorescence (excitation=390 nm, emission=490 nm) was measured with a Flex Station (Molecular Devices) fluorescent plate reader. At each concentration, Aβ fluorescence was normalized to background fluorescence and then expressed as a percentage of vehicle treated control samples. […] Data represents the mean of at least 9 replicates from 3 experiments.

A further series has as its system SH-SY5Y cells. The series is described as follows: Ionophore assay: cellular metal levels by ICP-MS. The class given is cell-based. The note with it: 20 μM, 6 hours; for Cu uptake compared to 8HQ: FIG. 1; for Cu uptake, fold increase than that of PBT2: FIG. 3. As to the method:
Cells were maintained at 37° C. with 5% CO2 and passaged every 3-4 days. Compounds (10 mM) were solubilized in DMSO (Sigma). CQ and PBT2 were used as positive controls. Cells were treated with growth media supplemented with each compound ([…]) or vehicle for 6 hours. Cells were harvested and metal levels were measured with Inductively-Coupled Plasma Mass Spectrometry (Varian), as previously described. […] Data represents the mean and S.E.M. of at least 9 replicates from 3 experiments. A oneway ANVOA with Fisher's LSD test was used to determine statistical differences relative to control (Prism 6, Graphpad).
Dashed line indicates control level. SH-SY5Y cells treated were treated with each compound (20 μM) for 6 hours and cellular metal levels were measured with ICP-MS.
(§1) SH-SY5Y cells treated were treated with each compound (20 μM) for 6 hours and cellular metal levels were measured with ICP-MS. Dashed line indicates control level.
as §1

Series [2] relates to patients with Huntington's disease and patients with AD. Conditions: phase II clinical trials; cited from earlier work.
Where [3] appears, read: Aβ oligomers induced with ZnSO4 (15 μM), bis-ANS fluorescence, compounds 0.1 to 120 μM for 30 min, pH 7.4, read-out: EC50 (μM), reversal of aggregation of soluble Aβ oligomers.

Consider `Oc1c(I)cc(Cl)c2cccnc12` [Clioquinol (CQ), 5-chloro-7-iodo-quinolin-8-ol], for which the “rate of cognitive decline” value with AD patients (AD patients) is listed as “attenuated”. Further, the tolerability result with AD patients is “well tolerated”. Also, the EC50 in series [1] (setting [3]) worked out at 1.8 µM. For the molecule `Oc1cccc2ccc(F)nc12` [Compound 5], the “Cu uptake compared to 8HQ” value with SH-SY5Y cells is given as “inferior to 8HQ”. The EC50 in series [1] was above 120 µM. With `Oc1cccc2cc(F)cnc12` [Compound 6], in the series on SH-SY5Y cells, the “Cu uptake compared to 8HQ” value is “inferior to 8HQ”. On to `Oc1ccccc1/N=C/c1ccc(F)cc1` [Compound 10], for which the EC50 in series [1] (setting [3]) worked out at 15.4 µM. Take `Oc1c(F)cc(Cl)c2cccnc12` [Compound 12, 5-chloro-7-fluoro-8-hydroxyquinoline]: in series [1] (setting [3]), the EC50 was 4.9 µM. Same read-out and setting: next, `Oc1c(F)cc(Br)c2cccnc12` [Compound 13, 5-bromo-7-fluoro-8-hydroxyquinoline]: 3.5 µM. Still for that read-out and setting: the same measure for `Oc1c(F)cc(I)c2cccnc12` [Compound 14, 7-fluoro-5-iodo-8-hydroxyquinoline]: 2.3 µM.

For `Oc1c(Cl)cc(F)c2cccnc12` [Compound 15, 7-chloro-5-fluoro-8-hydroxyquinoline], the EC50 in series [1] (setting [3]) stood at 5.2 µM. For `Oc1c(Br)cc(F)c2cccnc12` [Compound 16, 7-bromo-5-fluoro-8-hydroxyquinoline], the concentration for a half-maximal effect (EC50) in series [1] (setting [3]) was found to be 3.7 µM. `Oc1c(I)cc(F)c2cccnc12` [Compound 17, 5-fluoro-7-iodo-8-hydroxyquinoline]: the half-maximal effective concentration (EC50) in series [1] (setting [3]) came out at 2.5 µM. Turning to `Oc1c(Cl)cc(Cl)c2ccc(COCCF)nc12` [Compound 23, 5,7-dichloro-2-((2-fluoroethoxy)methyl)quinolin-8-ol], the EC50 in series [1] (setting [3]) stood at 2.4 µM. On the same count and under the same terms, the same measure for `Oc1c(Cl)cc(Cl)c2ccc(COCCCCF)nc12` [Compound 24, 5,7-dichloro-2-((4-fluorobutoxy)methyl)quinolin-8-ol]: 2 µM. With `CN(Cc1cn(CCF)nn1)Cc1ccc2c(Cl)cc(Cl)c(O)c2n1` [Compound 28, 5,7-dichloro-2-((((1-(2-fluoroethyl)-1H-1,2,3-triazol-4-yl)methyl)(methyl)amino)methyl)quinolin-8-ol], the “Cu uptake, fold increase than that of PBT2” value in the series with SH-SY5Y cells stood at 10 fold. Also, the EC50 in series [1] (setting [3]) amounted to 2.3 µM.

Consider `CN(Cc1cn(CCCF)nn1)Cc1ccc2c(Cl)cc(Cl)c(O)c2n1` [Compound 29, 5,7-dichloro-2-((((1-(3-fluoropropyl)-1H-1,2,3-triazol-4-yl)methyl)(methyl)amino)methyl)quinolin-8-ol], for which, in the series on SH-SY5Y cells, the “Cu uptake, fold increase than that of PBT2” value came to 16 fold. Moreover, the half-maximal effective concentration (EC50) in series [1] (setting [3]) was determined as 4.5 µM.

On to `CN(Cc1cn(CCCCF)nn1)Cc1ccc2c(Cl)cc(Cl)c(O)c2n1` [Compound 30, 5,7-dichloro-2-((((1-(4-fluorobutyl)-1H-1,2,3-triazol-4-yl)methyl)(methyl)amino)methyl)quinolin-8-ol], for which the “Cu uptake, fold increase than that of PBT2” value in the series with SH-SY5Y cells stood at 8 fold. Besides, in series [1] (setting [3]), the EC50 is 2.8 µM. On to `CN(C)Cc1ccc2c(Cl)cc(Cl)c(O)c2n1` [PBT2, 5,7-Dichloro-2-((dimethylamino)methyl) 8-quinolinol, reference compound], for which, in series [2], the benefits in patients result is listed as “shown benefits”. For the same molecule, the 50% effective concentration (EC50) in series [1] (setting [3]) is 2 µM.

For orientation: EC50 means the concentration giving half of the maximal effect.
